Measured values taken from patent US20240400577A1, “MODULATORS OF PROTEIN KINASES” (VIBLIOME THERAPEUTICS, LLC, priority 2021, published 2024).
One block for each molecule: values may come before it.

Experiments:
Assay in all cases: Kinase panel enzymatic inhibition assay (Nanosyn)
Format in all cases: biochemical
[1] = molecular target: T1, ITK (Homo sapiens, UniProt Q08881); conditions: ATP at Km; 30-minute pre-incubation; read-out: kinase inhibition in terms of IC50, ITK
T1 construct: Nanosyn (contract laboratory that ran the panel)
T1 sequence (Q08881 1-620): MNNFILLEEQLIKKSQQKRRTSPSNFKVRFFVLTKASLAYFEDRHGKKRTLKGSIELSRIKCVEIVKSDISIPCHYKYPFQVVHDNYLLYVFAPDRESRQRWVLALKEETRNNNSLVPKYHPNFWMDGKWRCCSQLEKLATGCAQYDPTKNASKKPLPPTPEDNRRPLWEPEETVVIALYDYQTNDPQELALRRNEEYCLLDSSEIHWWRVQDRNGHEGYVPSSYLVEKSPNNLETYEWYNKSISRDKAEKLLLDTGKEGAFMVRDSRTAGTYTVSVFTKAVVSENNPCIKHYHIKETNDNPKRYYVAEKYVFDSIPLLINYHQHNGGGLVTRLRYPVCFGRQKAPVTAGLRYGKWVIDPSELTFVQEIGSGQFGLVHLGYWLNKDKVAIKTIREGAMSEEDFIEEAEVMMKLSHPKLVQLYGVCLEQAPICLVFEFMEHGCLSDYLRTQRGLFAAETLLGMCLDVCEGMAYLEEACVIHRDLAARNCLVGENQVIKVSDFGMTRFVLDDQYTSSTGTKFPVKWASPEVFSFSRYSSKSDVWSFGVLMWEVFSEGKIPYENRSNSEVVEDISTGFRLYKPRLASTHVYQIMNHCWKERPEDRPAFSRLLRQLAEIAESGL
Description: (§1) The disclosed compounds were tested for activity against a panel of at least 300 kinases. Kinase panel screening was conducted by Nanosyn (Santa Clara, CA 95051) using an enzymatic inhibition assay accepted as valid by those skilled in the art (e.g., the Caliper LabChip® mobility shift assay, an ADP detection assay, or time-resolved fluorescence detection technology. Compounds were screened at a concentration of 5 μM using an ATP concentration at the Km for each of the respective kinases and a 30-minute pre-incubation time-point.
(§2) In Table 1 and 2, kinase inhibition is classified by: A=95% or greater, B=90%-94%, C=80%-89%, and D=79% and less with a compound concentration of 5 JIM. In Table 3 and 4, kinase inhibition is reported in terms of IC50 values corresponding to A=less than 500 nm, B=500 nm to less than 1 μM, C=1 μM to less than 10 μM, and D=10 μM or greater using a compound concentration of 5 μM.

[2] = molecular target: T2, PAK1 (Homo sapiens, UniProt Q13153); conditions: ATP at Km; 30-minute pre-incubation; read-out: kinase inhibition in terms of IC50, PAK1
T2 construct: Nanosyn (contract laboratory that ran the panel)
T2 sequence (Q13153 whole entry): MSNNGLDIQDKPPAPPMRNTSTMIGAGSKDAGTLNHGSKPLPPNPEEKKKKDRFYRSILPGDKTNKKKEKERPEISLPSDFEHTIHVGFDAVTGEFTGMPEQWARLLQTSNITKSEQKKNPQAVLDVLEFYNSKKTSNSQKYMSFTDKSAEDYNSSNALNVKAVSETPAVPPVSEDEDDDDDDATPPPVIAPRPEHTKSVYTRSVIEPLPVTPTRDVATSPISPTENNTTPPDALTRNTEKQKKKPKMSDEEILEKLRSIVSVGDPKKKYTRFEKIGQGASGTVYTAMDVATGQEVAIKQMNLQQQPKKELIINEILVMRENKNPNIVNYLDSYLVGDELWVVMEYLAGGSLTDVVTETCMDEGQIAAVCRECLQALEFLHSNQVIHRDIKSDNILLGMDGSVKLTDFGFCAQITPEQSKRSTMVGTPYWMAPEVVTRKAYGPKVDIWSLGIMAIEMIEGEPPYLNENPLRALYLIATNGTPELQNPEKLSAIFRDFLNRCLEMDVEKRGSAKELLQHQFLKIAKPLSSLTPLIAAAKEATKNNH
Description: as §1, §2

[3] = molecular target: T3, PAK4 (Homo sapiens, UniProt O96013); conditions: ATP at Km; 30-minute pre-incubation; read-out: kinase inhibition in terms of IC50, PAK4
T3 construct: Nanosyn (contract laboratory that ran the panel)
T3 sequence (O96013 whole entry): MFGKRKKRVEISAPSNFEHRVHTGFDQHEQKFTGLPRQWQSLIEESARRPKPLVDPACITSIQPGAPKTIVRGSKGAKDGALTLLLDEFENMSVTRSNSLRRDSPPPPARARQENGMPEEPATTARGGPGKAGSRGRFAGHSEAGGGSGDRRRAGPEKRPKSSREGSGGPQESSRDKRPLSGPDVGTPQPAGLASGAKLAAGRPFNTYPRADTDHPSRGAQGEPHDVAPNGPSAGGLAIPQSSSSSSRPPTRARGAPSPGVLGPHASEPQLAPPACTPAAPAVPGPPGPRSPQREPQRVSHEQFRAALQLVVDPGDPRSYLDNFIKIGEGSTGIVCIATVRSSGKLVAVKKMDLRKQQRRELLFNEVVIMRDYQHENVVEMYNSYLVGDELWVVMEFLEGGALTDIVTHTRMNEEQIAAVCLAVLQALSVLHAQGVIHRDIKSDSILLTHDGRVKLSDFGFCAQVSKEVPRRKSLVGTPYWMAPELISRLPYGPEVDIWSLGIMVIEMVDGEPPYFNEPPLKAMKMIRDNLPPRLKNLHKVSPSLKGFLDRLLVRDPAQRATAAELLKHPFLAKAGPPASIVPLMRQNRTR
Description: as §1, §2

[4] = molecular target: T4, PAK2 (Homo sapiens, UniProt Q13177); conditions: ATP at Km; 30-minute pre-incubation; read-out: kinase inhibition in terms of IC50, PAK2
T4 construct: Nanosyn (contract laboratory that ran the panel)
T4 sequence (Q13177 whole entry): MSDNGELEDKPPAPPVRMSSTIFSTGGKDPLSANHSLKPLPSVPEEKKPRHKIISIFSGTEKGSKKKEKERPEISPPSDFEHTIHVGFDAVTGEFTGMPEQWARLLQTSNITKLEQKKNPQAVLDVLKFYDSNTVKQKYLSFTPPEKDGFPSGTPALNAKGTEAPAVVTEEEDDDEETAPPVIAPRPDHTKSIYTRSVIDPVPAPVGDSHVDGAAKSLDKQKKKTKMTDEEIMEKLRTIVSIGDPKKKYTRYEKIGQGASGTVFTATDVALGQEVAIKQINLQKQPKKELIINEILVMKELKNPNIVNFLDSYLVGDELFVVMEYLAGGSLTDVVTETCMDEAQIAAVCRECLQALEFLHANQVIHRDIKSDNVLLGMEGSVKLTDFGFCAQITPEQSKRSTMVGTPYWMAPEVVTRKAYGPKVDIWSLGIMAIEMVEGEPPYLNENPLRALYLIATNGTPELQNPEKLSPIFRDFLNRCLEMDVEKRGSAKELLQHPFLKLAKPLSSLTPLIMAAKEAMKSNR
Description: as §1, §2

[5] = molecular target: T5, WEE1 (Homo sapiens, UniProt P30291); conditions: ATP at Km; 30-minute pre-incubation; read-out: kinase inhibition in terms of IC50, WEE1
T5 construct: purchased Nanosyn
T5 sequence (P30291 whole entry): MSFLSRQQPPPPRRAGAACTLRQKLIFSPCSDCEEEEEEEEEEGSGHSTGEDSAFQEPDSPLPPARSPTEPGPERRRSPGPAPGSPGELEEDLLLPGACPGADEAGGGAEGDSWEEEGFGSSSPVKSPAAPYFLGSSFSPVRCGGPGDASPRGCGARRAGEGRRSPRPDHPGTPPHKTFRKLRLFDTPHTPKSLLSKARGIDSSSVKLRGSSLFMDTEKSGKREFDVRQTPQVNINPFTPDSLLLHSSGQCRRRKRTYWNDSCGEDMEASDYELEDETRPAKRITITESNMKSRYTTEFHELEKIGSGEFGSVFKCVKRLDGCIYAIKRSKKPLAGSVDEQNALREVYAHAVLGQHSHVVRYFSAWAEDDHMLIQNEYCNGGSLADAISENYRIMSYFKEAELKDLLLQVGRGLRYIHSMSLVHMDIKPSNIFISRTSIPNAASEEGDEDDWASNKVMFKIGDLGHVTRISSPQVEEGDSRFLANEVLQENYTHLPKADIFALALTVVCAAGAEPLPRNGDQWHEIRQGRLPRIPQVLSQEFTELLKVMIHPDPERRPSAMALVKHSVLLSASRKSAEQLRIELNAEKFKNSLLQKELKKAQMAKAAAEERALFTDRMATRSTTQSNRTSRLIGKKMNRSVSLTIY
Description: as §1, §2

[6] = molecular target: T6, JAK3 (Homo sapiens, UniProt P52333); conditions: ATP at Km; 30-minute pre-incubation; read-out: kinase inhibition in terms of IC50, JAK3
T6 construct: Nanosyn (contract laboratory that ran the panel)
T6 sequence (P52333 1-1124): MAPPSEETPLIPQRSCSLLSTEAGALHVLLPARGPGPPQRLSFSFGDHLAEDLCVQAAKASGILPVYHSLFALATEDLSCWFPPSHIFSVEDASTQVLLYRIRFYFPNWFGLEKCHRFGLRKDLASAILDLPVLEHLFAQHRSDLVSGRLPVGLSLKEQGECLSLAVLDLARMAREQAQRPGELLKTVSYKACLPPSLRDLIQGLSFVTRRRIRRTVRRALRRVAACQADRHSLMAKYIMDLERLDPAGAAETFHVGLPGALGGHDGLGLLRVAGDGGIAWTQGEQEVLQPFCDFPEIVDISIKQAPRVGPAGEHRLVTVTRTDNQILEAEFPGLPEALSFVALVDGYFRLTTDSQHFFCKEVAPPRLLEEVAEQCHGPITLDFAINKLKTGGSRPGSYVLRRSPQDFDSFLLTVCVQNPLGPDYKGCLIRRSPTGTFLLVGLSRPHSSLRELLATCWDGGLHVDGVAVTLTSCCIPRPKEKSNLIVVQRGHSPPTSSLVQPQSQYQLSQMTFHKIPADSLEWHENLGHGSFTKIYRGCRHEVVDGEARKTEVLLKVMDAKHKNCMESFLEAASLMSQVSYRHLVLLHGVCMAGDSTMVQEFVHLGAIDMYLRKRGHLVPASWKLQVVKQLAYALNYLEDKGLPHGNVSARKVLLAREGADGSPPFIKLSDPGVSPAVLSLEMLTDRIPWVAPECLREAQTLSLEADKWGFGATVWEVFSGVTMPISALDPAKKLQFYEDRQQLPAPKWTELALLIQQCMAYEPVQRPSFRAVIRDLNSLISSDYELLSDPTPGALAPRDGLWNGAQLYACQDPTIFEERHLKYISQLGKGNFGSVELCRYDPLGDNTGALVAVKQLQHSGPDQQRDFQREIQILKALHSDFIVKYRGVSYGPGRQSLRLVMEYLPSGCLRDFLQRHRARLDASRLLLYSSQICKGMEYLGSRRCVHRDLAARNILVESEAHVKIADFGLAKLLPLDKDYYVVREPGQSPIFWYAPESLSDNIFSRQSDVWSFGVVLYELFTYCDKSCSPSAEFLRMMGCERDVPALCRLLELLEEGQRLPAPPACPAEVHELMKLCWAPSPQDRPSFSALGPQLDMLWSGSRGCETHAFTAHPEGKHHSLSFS
Description: as §1, §2

[7] = molecular target: T7, TYK2 (Homo sapiens, UniProt P29597); conditions: ATP at Km; 30-minute pre-incubation; read-out: kinase inhibition in terms of IC50, TYK2
T7 construct: purchased Nanosyn
T7 sequence (P29597 whole entry): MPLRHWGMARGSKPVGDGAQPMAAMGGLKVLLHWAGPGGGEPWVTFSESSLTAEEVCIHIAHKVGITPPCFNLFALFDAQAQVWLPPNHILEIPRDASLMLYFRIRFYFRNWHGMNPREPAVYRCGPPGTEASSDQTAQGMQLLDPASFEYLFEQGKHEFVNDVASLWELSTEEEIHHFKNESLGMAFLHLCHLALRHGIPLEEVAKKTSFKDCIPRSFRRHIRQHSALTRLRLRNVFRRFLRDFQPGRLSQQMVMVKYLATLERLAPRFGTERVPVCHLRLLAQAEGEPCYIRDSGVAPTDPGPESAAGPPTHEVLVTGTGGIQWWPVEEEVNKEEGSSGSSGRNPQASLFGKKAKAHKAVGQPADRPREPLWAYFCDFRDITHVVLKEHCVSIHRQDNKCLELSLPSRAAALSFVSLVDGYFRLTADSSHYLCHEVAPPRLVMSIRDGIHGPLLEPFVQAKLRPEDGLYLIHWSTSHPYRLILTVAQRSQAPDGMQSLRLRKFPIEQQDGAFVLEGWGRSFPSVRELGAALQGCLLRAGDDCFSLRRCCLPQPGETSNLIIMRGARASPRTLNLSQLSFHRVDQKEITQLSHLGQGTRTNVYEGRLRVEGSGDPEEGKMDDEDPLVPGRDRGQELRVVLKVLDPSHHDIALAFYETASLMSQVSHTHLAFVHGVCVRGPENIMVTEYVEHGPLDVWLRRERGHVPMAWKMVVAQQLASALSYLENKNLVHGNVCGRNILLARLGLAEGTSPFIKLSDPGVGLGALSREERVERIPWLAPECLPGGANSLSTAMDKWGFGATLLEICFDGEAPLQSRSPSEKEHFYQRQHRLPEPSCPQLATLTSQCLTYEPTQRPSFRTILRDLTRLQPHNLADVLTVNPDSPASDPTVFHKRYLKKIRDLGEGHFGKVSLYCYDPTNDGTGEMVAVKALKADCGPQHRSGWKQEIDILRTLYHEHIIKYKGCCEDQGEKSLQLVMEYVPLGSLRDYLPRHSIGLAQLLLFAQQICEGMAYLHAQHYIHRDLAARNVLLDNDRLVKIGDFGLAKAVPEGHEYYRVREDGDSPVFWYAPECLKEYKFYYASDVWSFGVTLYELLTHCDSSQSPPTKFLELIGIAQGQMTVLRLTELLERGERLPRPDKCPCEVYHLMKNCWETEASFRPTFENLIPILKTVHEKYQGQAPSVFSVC
Description: as §1, §2

IC50 [1]: ≥ 10 µM
SMILES: Cc1ccc(NC(=O)c2ccn(-c3ccc(F)cc3)n2)cc1Nc1nccc(-c2cccnc2)n1 [Ex75, 1-(4-fluorophenyl)-N-(4-methyl-3-((4-(pyridin-3-yl)pyrimidin-2-yl)amino)phenyl)-1H-pyrazole-3-carboxamide]

IC50 [2]: ≥ 10 µM
IC50 [3]: 1 to 10 µM
IC50 [4]: ≥ 10 µM
IC50 [5]: ≥ 10 µM
SMILES: CNc1ncc2cc(-c3cc(NC(=O)c4cc(S(C)(=O)=O)n(-c5ccc(F)cc5)n4)ccc3Cl)c(=O)n(C)c2n1 [Ex76, N-(4-chloro-3-(8-methyl-2-(methylamino)-7-oxo-7,8-dihydropyrido[2,3-d]pyrimidin-6-yl)phenyl)-1-(4-fluorophenyl)-5-(methylsulfonyl)-1H-pyrazole-3-carboxamide]

IC50 [2]: ≥ 10 µM
IC50 [4]: ≥ 10 µM
SMILES: CNc1ncc2cc(-c3cc(NC(=O)c4ccn(-c5ccc(F)cc5)n4)c(F)cc3C)c(C)nc2n1 [Ex85, N-(2-fluoro-4-methyl-5-(7-methyl-2-(methylamino)pyrido[2,3-d]pyrimidin-6-yl)phenyl)-1-(4-fluorophenyl)-1H-pyrazole-3-carboxamide]

IC50 [6]: ≥ 10 µM
IC50 [7]: ≥ 10 µM
SMILES: Cc1cnc2[nH]cc(Cc3ccc(NC(=O)c4cc(S(C)(=O)=O)n(-c5ccc(F)cc5)n4)nc3F)c2c1 [Ex87, N-(6-fluoro-5-((5-methyl-1H-pyrrolo[2,3-b]pyridin-3-yl)methyl)pyridin-2-yl)-1-(4-fluorophenyl)-5-(methylsulfonyl)-1H-pyrazole-3-carboxamide]
